Experimental data from patent publication US20220339143A1, “TAK-925 FOR USE IN TREATING NARCOLEPSY” (Takeda Pharmaceutical Company Limited, priority 2019, published 2022).

Tested on: patients with narcolepsy type 1 (NT1)
Test: Subjective daytime sleepiness as assessed by Karolinska Sleepiness Scale (KSS), single dose (Cohorts 5, 6, 7)
Type: in vivo, human
Settings: for KSS Change from Baseline, Mean / KSS Change from Baseline, Median / KSS Observed Value at Visit, Mean / KSS Observed Value at Visit, Median: Cmpd A 5 mg (N = 6)
Protocol: Daytime sleepiness as assessed by the Karolinska Sleepiness Scale (KSS).
Daytime sleepiness as assessed by KSS at predose and hourly until 11 hours after the start of infusion is presented in Table 13 as summary, in Table 14 as ANOVA and in Table 15 as ANOVA of change from baseline.

SMILES: COC(=O)N1CCC[C@H](NS(C)(=O)=O)[C@@H]1CO[C@H]1CC[C@@H](c2ccccc2)CC1 [Compound A, methyl (2R,3S)-3-((methylsulfonyl)amino)-2-(((cis-4-phenylcyclohexyl)oxy)methyl)piperidine-1-carboxylate]
- LS mean difference (95% CI) of KSS vs placebo during the 9 hour infusion, upper end of range (5 mg): −0.667 (−2.641, 1.307)
- Change from Baseline in KSS, ANOVA Estimate (Cmpd A - Placebo) (5 mg, 1 hr): −2.833
- KSS, ANOVA Estimate (Cmpd A - Placebo) (5 mg, 1 hr): −2.000
- Change from Baseline in KSS, ANOVA Estimate (Cmpd A - Placebo) (5 mg, 2 hr): −4.333
- KSS, ANOVA Estimate (Cmpd A - Placebo) (5 mg, 2 hr): −3.500
- Change from Baseline in KSS, ANOVA Estimate (Cmpd A - Placebo) (5 mg, 3 hr): −2.167
- KSS, ANOVA Estimate (Cmpd A - Placebo) (5 mg, 3 hr): −1.333
- Change from Baseline in KSS, ANOVA Estimate (Cmpd A - Placebo) (5 mg, 4 hr): −4.167
- KSS, ANOVA Estimate (Cmpd A - Placebo) (5 mg, 4 hr): −3.333
- Change from Baseline in KSS, ANOVA Estimate (Cmpd A - Placebo) (5 mg, 5 hr): −3.500
- KSS, ANOVA Estimate (Cmpd A - Placebo) (5 mg, 5 hr): −2.667
- Change from Baseline in KSS, ANOVA Estimate (Cmpd A - Placebo) (5 mg, 6 hr): −4.333
- KSS, ANOVA Estimate (Cmpd A - Placebo) (5 mg, 6 hr): −3.500
- Change from Baseline in KSS, ANOVA Estimate (Cmpd A - Placebo) (5 mg, 7 hr): −4.333
- KSS, ANOVA Estimate (Cmpd A - Placebo) (5 mg, 7 hr): −3.500
- Change from Baseline in KSS, ANOVA Estimate (Cmpd A - Placebo) (5 mg, 8 hr): −3.500
- KSS, ANOVA Estimate (Cmpd A - Placebo) (5 mg, 8 hr): −2.667
- Change from Baseline in KSS, ANOVA Estimate (Cmpd A - Placebo) (5 mg, 9 hr): −1.500
- KSS, ANOVA Estimate (Cmpd A - Placebo) (5 mg, 9 hr): −0.667
- Change from Baseline in KSS, ANOVA Estimate (Cmpd A - Placebo) (5 mg, 10 hr): −2.000
- KSS, ANOVA Estimate (Cmpd A - Placebo) (5 mg, 10 hr): −1.167
- Change from Baseline in KSS, ANOVA Estimate (Cmpd A - Placebo) (5 mg, 11 hr): −0.167
- KSS, ANOVA Estimate (Cmpd A - Placebo) (5 mg, 11 hr): 0.667
- LS mean difference (95% CI) of KSS vs placebo during the 9 hour infusion, lower end of range (5 mg, at 2 hour, 6 hour and 7 hour after the start of infusion): −3.500
- LS mean difference (95% CI) of KSS vs placebo during the 9 hour infusion, lower end of range (11.2 mg): −4.000 (−7.331, −0.669)
- LS mean difference (95% CI) of KSS vs placebo during the 9 hour infusion, upper end of range (11.2 mg): −1.500 (−3.439, 0.439)
- Change from Baseline in KSS, ANOVA Estimate (Cmpd A - Placebo) (11.2 mg, 1 hr): −4.500
- KSS, ANOVA Estimate (Cmpd A - Placebo) (11.2 mg, 1 hr): −3.500
- Change from Baseline in KSS, ANOVA Estimate (Cmpd A - Placebo) (11.2 mg, 2 hr): −4.500
- KSS, ANOVA Estimate (Cmpd A - Placebo) (11.2 mg, 2 hr): −3.500
- Change from Baseline in KSS, ANOVA Estimate (Cmpd A - Placebo) (11.2 mg, 3 hr): −2.500
- KSS, ANOVA Estimate (Cmpd A - Placebo) (11.2 mg, 3 hr): −1.500
- Change from Baseline in KSS, ANOVA Estimate (Cmpd A - Placebo) (11.2 mg, 4 hr): −5.000
- KSS, ANOVA Estimate (Cmpd A - Placebo) (11.2 mg, 4 hr): −4.000
- Change from Baseline in KSS, ANOVA Estimate (Cmpd A - Placebo) (11.2 mg, 5 hr): −4.000
- KSS, ANOVA Estimate (Cmpd A - Placebo) (11.2 mg, 5 hr): −3.000
- Change from Baseline in KSS, ANOVA Estimate (Cmpd A - Placebo) (11.2 mg, 6 hr): −4.000
- KSS, ANOVA Estimate (Cmpd A - Placebo) (11.2 mg, 6 hr): −3.000
- Change from Baseline in KSS, ANOVA Estimate (Cmpd A - Placebo) (11.2 mg, 7 hr): −4.500
- KSS, ANOVA Estimate (Cmpd A - Placebo) (11.2 mg, 7 hr): −3.500
- Change from Baseline in KSS, ANOVA Estimate (Cmpd A - Placebo) (11.2 mg, 8 hr): −3.500
- KSS, ANOVA Estimate (Cmpd A - Placebo) (11.2 mg, 8 hr): −2.500
- Change from Baseline in KSS, ANOVA Estimate (Cmpd A - Placebo) (11.2 mg, 9 hr): −3.000
- KSS, ANOVA Estimate (Cmpd A - Placebo) (11.2 mg, 9 hr): −2.000
- Change from Baseline in KSS, ANOVA Estimate (Cmpd A - Placebo) (11.2 mg, 10 hr): −2.500
- KSS, ANOVA Estimate (Cmpd A - Placebo) (11.2 mg, 10 hr): −1.500
- Change from Baseline in KSS, ANOVA Estimate (Cmpd A - Placebo) (11.2 mg, 11 hr): −2.000
- KSS, ANOVA Estimate (Cmpd A - Placebo) (11.2 mg, 11 hr): −1.000
- LS mean difference (95% CI) of KSS vs placebo during the 9 hour infusion, lower end of range (44.8 mg): −6.947 (−9.139, −4.756)
- LS mean difference (95% CI) of KSS vs placebo during the 9 hour infusion, upper end of range (44.8 mg): −2.868 (−6.851, 1.114)
- Change from Baseline in KSS, ANOVA Estimate (Cmpd A - Placebo) (44.8 mg, 1 hr): −5.237
- KSS, ANOVA Estimate (Cmpd A - Placebo) (44.8 mg, 1 hr): −6.947
- Change from Baseline in KSS, ANOVA Estimate (Cmpd A - Placebo) (44.8 mg, 2 hr): −3.053
- KSS, ANOVA Estimate (Cmpd A - Placebo) (44.8 mg, 2 hr): −4.763
- Change from Baseline in KSS, ANOVA Estimate (Cmpd A - Placebo) (44.8 mg, 3 hr): −1.553
- KSS, ANOVA Estimate (Cmpd A - Placebo) (44.8 mg, 3 hr): −3.263
- Change from Baseline in KSS, ANOVA Estimate (Cmpd A - Placebo) (44.8 mg, 4 hr): −2.184
- KSS, ANOVA Estimate (Cmpd A - Placebo) (44.8 mg, 4 hr): −3.895
- Change from Baseline in KSS, ANOVA Estimate (Cmpd A - Placebo) (44.8 mg, 5 hr): −2.026
- KSS, ANOVA Estimate (Cmpd A - Placebo) (44.8 mg, 5 hr): −3.737
- Change from Baseline in KSS, ANOVA Estimate (Cmpd A - Placebo) (44.8 mg, 6 hr): −1.158
- KSS, ANOVA Estimate (Cmpd A - Placebo) (44.8 mg, 6 hr): −2.868
- Change from Baseline in KSS, ANOVA Estimate (Cmpd A - Placebo) (44.8 mg, 7 hr): −3.737
- KSS, ANOVA Estimate (Cmpd A - Placebo) (44.8 mg, 7 hr): −5.447
- Change from Baseline in KSS, ANOVA Estimate (Cmpd A - Placebo) (44.8 mg, 8 hr): −2.921
- KSS, ANOVA Estimate (Cmpd A - Placebo) (44.8 mg, 8 hr): −4.632
- Change from Baseline in KSS, ANOVA Estimate (Cmpd A - Placebo) (44.8 mg, 9 hr): −2.868
- KSS, ANOVA Estimate (Cmpd A - Placebo) (44.8 mg, 9 hr): −4.579
- Change from Baseline in KSS, ANOVA Estimate (Cmpd A - Placebo) (44.8 mg, 10 hr): −0.632
- KSS, ANOVA Estimate (Cmpd A - Placebo) (44.8 mg, 10 hr): −2.342
- Change from Baseline in KSS, ANOVA Estimate (Cmpd A - Placebo) (44.8 mg, 11 hr): 0.974
- KSS, ANOVA Estimate (Cmpd A - Placebo) (44.8 mg, 11 hr): −0.737
- KSS Change from Baseline, Mean (1 hr after start of infusion): −2.3
- KSS Change from Baseline, Median (1 hr after start of infusion): −2.5
- KSS Observed Value at Visit, Mean (1 hr after start of infusion): 2.7
- KSS Observed Value at Visit, Median (1 hr after start of infusion): 2.5
- KSS Change from Baseline, Mean (2 hr after start of infusion): −2.8
- KSS Change from Baseline, Median (2 hr after start of infusion): −2.5
- KSS Observed Value at Visit, Mean (2 hr after start of infusion): 2.2
- KSS Observed Value at Visit, Median (2 hr after start of infusion): 2.0
- KSS Change from Baseline, Mean (3 hr after start of infusion): −3.2
- KSS Change from Baseline, Median (3 hr after start of infusion): −3.5
- KSS Observed Value at Visit, Mean (3 hr after start of infusion): 1.8
- KSS Observed Value at Visit, Median (3 hr after start of infusion): 1.5
- KSS Change from Baseline, Mean (4 hr after start of infusion): −2.8
- KSS Change from Baseline, Median (4 hr after start of infusion): −2.5
- KSS Observed Value at Visit, Mean (4 hr after start of infusion): 2.2
- KSS Observed Value at Visit, Median (4 hr after start of infusion): 1.5
- KSS Change from Baseline, Mean (5 hr after start of infusion): −3.0
- KSS Change from Baseline, Median (5 hr after start of infusion): −3.0
- KSS Observed Value at Visit, Mean (5 hr after start of infusion): 2.0
- KSS Observed Value at Visit, Median (5 hr after start of infusion): 2.0
- KSS Change from Baseline, Mean (6 hr after start of infusion): −3.2
- KSS Change from Baseline, Median (6 hr after start of infusion): −3.5
- KSS Observed Value at Visit, Mean (6 hr after start of infusion): 1.8
- KSS Observed Value at Visit, Median (6 hr after start of infusion): 1.5
- KSS Change from Baseline, Mean (7 hr after start of infusion): −2.5
- KSS Change from Baseline, Median (7 hr after start of infusion): −2.5
- KSS Observed Value at Visit, Mean (7 hr after start of infusion): 2.5
- KSS Observed Value at Visit, Median (7 hr after start of infusion): 2.5
- KSS Change from Baseline, Mean (8 hr after start of infusion): −2.7
- KSS Change from Baseline, Median (8 hr after start of infusion): −3.0
- KSS Observed Value at Visit, Mean (8 hr after start of infusion): 2.3
